Source: patent publication US20240051952A1, “HMOX1 INDUCERS” (Mitobridge Inc., priority 2019, published 2024)
pEC50: −log10 of the molar value.

system: Human Heme Oxygenase-1 (HMOX-1); assay: ELISA assay to measure human heme oxygenase-1 (HMOX-1) in HepG2 lysate; assay type: cell-based; conditions: fold change of human HMOX1 protein levels relative to DMSO control, HepG2
Method: Example 143. ELISA Assay to Measure Human Heme Oxygenase-1 (HMOX-1) in HepG2 lysate
Reagents and Technical Notes:
ELISA capture antibody, standard HO-1, detection antibody and streptavidin HRP were supplied in the DuoSet IC Human total HO-1 ELISA from R&D systems (DYC3776-2). The substrate cocktail was KPL LumiGLO reserve Chemiluminescent Substrate (54-71-00). PBS was Corning Cellgro Cell Culture (21-040-CV). 10×PBS+0.05% tween20 (PBST) was from KPL.
All incubations of the plate were at room temperature (20° C.) in a closed drawer.
The ELISA plate was processed manually. All loadings were with a multichannel pipet. Plates were emptied by shaking into the sink and tapping onto paper towels to remove any remaining reagent. Plate washing was accomplished by loading all wells with PBS+0.05% tween20 (PBST) using a squirt bottle, shaking the PBST out and tapping the plate onto paper towels.
Preparation of the ELISA Plate: • 1. anti-HO-1 capture antibody was 1440 μg/ml after reconstitution in PBS. This antibody was diluted to 8 μg/ml in PBS and 50 μl per well was added to a 384 well greiner “lumitrac 200” plate. Incubated overnight. • 2. The plate was emptied and 100 μl PBS+1% BSA added to all wells. Incubated 90 minutes at room temperature.
Preparation of HepG2 Lysate: • 1. Cells were cultured in a 96-well tissue culture plate washed with PBS and then the plate frozen at −70° C. overnight. Plates were allowed to warm to ice temperature in an ice bucket. 20 μl of PBS, 0.5% Triton X100, 1 mM EDTA with 1×HALT™ protease inhibitors was added to each well and the plates incubated on ice for 1 hour. • 2. The lysates were frozen at −20° C. overnight.
Measurement of HMOX1 (“HO-1”) • 1. In a polypropylene 384 well plate, human HO-1(after reconstitution in PBS+0.5% Triton+1 mM EDTA) was serially diluted from 20 ng/ml 2-fold in PBS+0.5% triton-X100, 1 mM EDTA to make a 12-point standard curve including a zero point. • 2. In a polypropylene 96 well plate, HepG2 lysate was diluted 1 to 20 in Diluent #4 from DUOSET kit in which the assay standard is also diluted. • 3. The PBS+1% BSA was emptied from the ELISA plate and 30 μl of all samples and standards were added (duplicates recommended). The plate was incubated 90 minutes. • 4. Emptied plate and washed 4 times with PBST. • 5. Diluted HO-1 detection antibody to 200 ng/ml in PBS+1% BSA and added 30 μl to all wells. Incubated 90 minutes. • 6. Emptied plate and washed 4 times with PBST. • 7. Added 30 μl streptavidin HRP at 1/200 in PBS+1% BSA (stock streptavidin concentration not specified) to all wells. Incubated 30 minutes. • 8. Emptied plate and washed 4 times with PBST. • 9. Diluted Lumiglo reserve reagent two parts buffer to one part lumiglo substrate. Added 30 μl to all wells. Incubated 5 minutes. • 10. Measured chemiluminescence on spectramax M5 using 150 ms integration.
Table 1 below lists EC50 and fold changes of human HMOX1 protein levels relative to DMSO control upon treatment with representative compounds.

Row | SMILES | Maximum Fold induction
1 | Cn1c(Nc2nc3ccc(C(F)(F)F)cc3o2)nc2cc(C(=O)O)ccc21 [Example 31, 1-methyl-2-((6-(trifluoromethyl)benzo[d]oxazol-2-yl)amino)-1H-benzo[d]imidazole-5-carboxylic acid] | 25-29
2 | COCCNC(=O)c1ccc2c(c1)nc(Nc1nc3ccc(C(F)(F)F)cc3o1)n2C [Example 32, N-(2-methoxyethyl)-1-methyl-2-((6-(trifluoromethyl)benzo[d]oxazol-2-yl)amino)-1H-benzo[d]imidazole-5-carboxamide] | 14-50
3 | Cn1c(Nc2nc3ccc(C(F)(F)F)cc3o2)nc2cc(C(=O)NCCO)ccc21 [Example 33, N-(2-hydroxyethyl)-1-methyl-2-((6-(trifluoromethyl)benzo[d]oxazol-2-yl)amino)-1H-benzo[d]imidazole-5-carboxamide] | 32-45
4 | Cn1c(Nc2nc3ccc(C(F)(F)F)cc3o2)nc2cc(C(=O)NCCOCCO)ccc21 [Example 34, N-(2-(2-hydroxyethoxy)ethyl)-1-methyl-2-((6-(trifluoromethyl)benzo[d]oxazol-2-yl)amino)-1H-benzo[d]imidazole-5-carboxamide] | 31-36
5 | CC(O)CNC(=O)c1ccc2c(c1)nc(Nc1nc3ccc(C(F)(F)F)cc3o1)n2C (stereo not shown) [Example 35, N-(2-hydroxypropyl)-1-methyl-2-((6-(trifluoromethyl)benzo[d]oxazol-2-yl)amino)-1H-benzo[d]imidazole-5-carboxamide] | 37
6 | Cn1c(Nc2nc3ccc(C(F)(F)F)cc3o2)nc2cc(C(=O)NCCN3CCCC3)ccc21 [Example 36, 1-methyl-N-(2-(pyrrolidin-1-yl)ethyl)-2-((6-(trifluoromethyl)benzo[d]oxazol-2-yl)amino)-1H-benzo[d]imidazole-5-carboxamide] | 42
7 | Cn1c(Nc2nc3ccc(C(F)(F)F)cc3o2)nc2cc(C(=O)NCCN3CCCCC3)ccc21 [Example 37, 1-methyl-N-(2-(piperidin-1-yl)ethyl)-2-((6-(trifluoromethyl)benzo[d]oxazol-2-yl)amino)-1H-benzo[d]imidazole-5-carboxamide] | 28
8 | CC(O)COCCNC(=O)c1ccc2c(c1)nc(Nc1nc3ccc(C(F)(F)F)cc3o1)n2C (stereo not shown) [Example 38, N-(2-(2-hydroxypropoxy)ethyl)-1-methyl-2-((6-(trifluoromethyl)benzo[d]oxazol-2-yl)amino)-1H-benzo[d]imidazole-5-carboxamide] | 30
9 | Cn1c(Nc2nc3ccc(C(F)(F)F)cc3o2)nc2cc(C(=O)NCC(O)CO)ccc21 (stereo not shown) [Example 39, N-(2,3-dihydroxypropyl)-1-methyl-2-((6-(trifluoromethyl)benzo[d]oxazol-2-yl)amino)-1H-benzo[d]imidazole-5-carboxamide] | 56-82
10 | CN(C)CC(=O)NCCNC(=O)c1ccc2c(c1)nc(Nc1nc3ccc(C(F)(F)F)cc3o1)n2C [Example 40, N-(2-(2-(dimethylamino)acetamido)ethyl)-1-methyl-2-((6-(trifluoromethyl)benzo[d]oxazol-2-yl)amino)-1H-benzo[d]imidazole-5-carboxamide] | 56-93
11 | Cn1c(Nc2nc3ccc(C(F)(F)F)cc3o2)nc2cc(C(=O)NCCOCC(=O)O)ccc21 [Example 41, 2-(2-(1-methyl-2-((6-(trifluoromethyl)benzo[d]oxazol-2-yl)amino)-1H-benzo[d]imidazole-5-carboxamido)ethoxy)acetic acid] | 35-39
12 | Cn1c(Nc2nc3ccc(C(F)(F)F)cc3o2)nc2cc(C(=O)NCCOCC(C)(C)O)ccc21 [Example 42, N-(2-(2-hydroxy-2-methylpropoxy)ethyl)-1-methyl-2-((6-(trifluoromethyl)benzo[d]oxazol-2-yl)amino)-1H-benzo[d]imidazole-5-carboxamide] | 39
13 | Cn1c(Nc2nc3cc(C(F)(F)F)ccc3o2)nc2cc(C(=O)NCCOCCO)ccc21 [Example 43, N-(2-(2-hydroxyethoxy)ethyl)-1-methyl-2-((5-(trifluoromethyl)benzo[d]oxazol-2-yl)amino)-1H-benzo[d]imidazole-5-carboxamide] | 56
14 | COCCNC(=O)c1ccc2c(c1)nc(Nc1nc3ccc(OC(F)(F)F)cc3o1)n2C [Example 45, N-(2-methoxyethyl)-1-methyl-2-((6-(trifluoromethoxy)benzo[d]oxazol-2-yl)amino)-1H-benzo[d]imidazole-5-carboxamide] | 10-28
15 | Cn1c(Nc2nc3ccc(OC(F)(F)F)cc3o2)nc2cc(C(=O)Nc3cn[nH]c3)ccc21 [Example 46, 1-methyl-N-(1H-pyrazol-4-yl)-2-((6-(trifluoromethoxy)benzo[d]oxazol-2-yl)amino)-1H-benzo[d]imidazole-5-carboxamide] | 14-20
16 | Cn1c(Nc2nc3ccc(OC(F)(F)F)cc3o2)nc2cc(C(=O)NC(CO)(CO)CO)ccc21 [Example 47, N-(1,3-dihydroxy-2-(hydroxymethyl)propan-2-yl)-1-methyl-2-((6-(trifluoromethoxy)benzo[d]oxazol-2-yl)amino)-1H-benzo[d]imidazole-5-carboxamide] | 13-16
17 | Cn1c(Nc2nc3ccc(OC(F)(F)F)cc3o2)nc2cc(C(=O)NC(CO)CO)ccc21 [Example 48, N-(1,3-dihydroxypropan-2-yl)-1-methyl-2-((6-(trifluoromethoxy)benzo[d]oxazol-2-yl)amino)-1H-benzo[d]imidazole-5-carboxamide] | 13-20
18 | CN(C)CC(=O)NCCNC(=O)c1ccc2c(c1)nc(Nc1nc3ccc(OC(F)(F)F)cc3o1)n2C [Example 49, N-(2-(2-(dimethylamino)acetamido)ethyl)-1-methyl-2-((6-(trifluoromethoxy)benzo[d]oxazol-2-yl)amino)-1H-benzo[d]imidazole-5-carboxamide] | 14-23
19 | Cn1cc(NC(=O)c2ccc3c(c2)nc(Nc2nc4ccc(OC(F)(F)F)cc4o2)n3C)cn1 [Example 50, 1-methyl-N-(1-methyl-1H-pyrazol-4-yl)-2-((6-(trifluoromethoxy)benzo[d]oxazol-2-yl)amino)-1H-benzo[d]imidazole-5-carboxamide] | 12-18
20 | Cn1c(Nc2nc3ccc(OC(F)(F)F)cc3o2)nc2cc(C(=O)NC3COC3)ccc21 [Example 51, 1-methyl-N-(oxetan-3-yl)-2-((6-(trifluoromethoxy)benzo[d]oxazol-2-yl)amino)-1H-benzo[d]imidazole-5-carboxamide] | 30-57
21 | Cn1c(Nc2nc3ccc(OC(F)(F)F)cc3o2)nc2cc(C(=O)NCC3(O)COC3)ccc21 [Example 52, N-((3-hydroxyoxetan-3-yl)methyl)-1-methyl-2-((6-(trifluoromethoxy)benzo[d]oxazol-2-yl)amino)-1H-benzo[d]imidazole-5-carboxamide] | 27
22 | Cn1c(Nc2nc3ccc(OC(F)(F)F)cc3o2)nc2cc(C(=O)NCCO)ccc21 [Example 53, N-(2-hydroxyethyl)-1-methyl-2-((6-(trifluoromethoxy)benzo[d]oxazol-2-yl)amino)-1H-benzo[d]imidazole-5-carboxamide] | 29-38
23 | Cn1c(Nc2nc3ccc(OC(F)(F)F)cc3o2)nc2cc(C(=O)NCCS(C)(=O)=O)ccc21 [Example 54, 1-methyl-N-(2-(methylsulfonyl)ethyl)-2-((6-(trifluoromethoxy)benzo[d]oxazol-2-yl)amino)-1H-benzo[d]imidazole-5-carboxamide] | 31-37
24 | COCCOc1ccc2nc(Nc3nc4cc(C(=O)O)ccc4n3C)oc2c1 [Example 55, 2-((6-(2-methoxyethoxy)benzo[d]oxazol-2-yl)amino)-1-methyl-1H-benzo[d]imidazole-5-carboxylic acid] | 15

same assay, conditions: human HMOX1 protein in HepG2 lysate, ELISA; * = average of 2 or more EC50 determinations; NA = Not Active

Row | SMILES | pEC50
25 | COCCOc1ccc2nc(Nc3nc4cc(C(=O)O)ccc4n3C)oc2c1 [Example 55, 2-((6-(2-methoxyethoxy)benzo[d]oxazol-2-yl)amino)-1-methyl-1H-benzo[d]imidazole-5-carboxylic acid] | 5.35
